According to the NIST ThermoML archive (doi:10.1021/acs.jced.6b00455):

Experiment: mn = molality of the nth substance listed, in mol/kg
Conditions: 101 kPa, Liquid, Alternating current cell with electrodes

C[N+](C)(C)CCO.O=C([O-])C(F)(F)C(F)(F)C(F)(F)C(F)(F)C(F)(F)F [(2-hydroxyethyl)trimethylammonium perfluorohexanoate] + O
Conditions	electrical conductivity [S/m]
293.15 K, m1 = 0.000375	0.0022
293.15 K, m1 = 0.000696	0.0041
293.15 K, m1 = 0.001138	0.0071
293.15 K, m1 = 0.001477	0.0092
293.15 K, m1 = 0.001847	0.0114
293.15 K, m1 = 0.002373	0.0146
293.15 K, m1 = 0.00271	0.0166
293.15 K, m1 = 0.003146	0.0191
293.15 K, m1 = 0.003565	0.0215
293.15 K, m1 = 0.003898	0.0234
293.15 K, m1 = 0.004204	0.0251
293.15 K, m1 = 0.004601	0.0273
293.15 K, m1 = 0.00507	0.03
293.15 K, m1 = 0.00539	0.0318
293.15 K, m1 = 0.005815	0.034
293.15 K, m1 = 0.006239	0.0364
293.15 K, m1 = 0.00662	0.0384
293.15 K, m1 = 0.007072	0.0408
293.15 K, m1 = 0.007377	0.0425
293.15 K, m1 = 0.007726	0.0443
293.15 K, m1 = 0.008233	0.047
293.15 K, m1 = 0.008702	0.0493
293.15 K, m1 = 0.009174	0.0517
293.15 K, m1 = 0.009518	0.0535
293.15 K, m1 = 0.009916	0.0557
293.15 K, m1 = 0.01043	0.0585
293.15 K, m1 = 0.01075	0.0607
293.15 K, m1 = 0.01135	0.0637
293.15 K, m1 = 0.01181	0.0666
293.15 K, m1 = 0.01223	0.0687
298.15 K, m1 = 0.00055	0.0043
298.15 K, m1 = 0.001005	0.0076
298.15 K, m1 = 0.001703	0.0126
298.15 K, m1 = 0.002219	0.0163
298.15 K, m1 = 0.002829	0.0204
298.15 K, m1 = 0.003309	0.0241
298.15 K, m1 = 0.003767	0.0269
298.15 K, m1 = 0.00423	0.0305
298.15 K, m1 = 0.004871	0.0338
298.15 K, m1 = 0.005471	0.0376
298.15 K, m1 = 0.005971	0.0408
298.15 K, m1 = 0.006435	0.0436
298.15 K, m1 = 0.007097	0.0477
298.15 K, m1 = 0.007791	0.0519
298.15 K, m1 = 0.008432	0.0557
298.15 K, m1 = 0.008992	0.0589
298.15 K, m1 = 0.009929	0.0652
298.15 K, m1 = 0.01068	0.0683
298.15 K, m1 = 0.0118	0.0747
298.15 K, m1 = 0.01243	0.0781
298.15 K, m1 = 0.01316	0.0821
298.15 K, m1 = 0.01446	0.0892
303.15 K, m1 = 0.000466	0.0041
303.15 K, m1 = 0.000808	0.0072
303.15 K, m1 = 0.001191	0.0104
303.15 K, m1 = 0.001576	0.0137
303.15 K, m1 = 0.002245	0.0181
303.15 K, m1 = 0.002642	0.0212
303.15 K, m1 = 0.00302	0.0242
303.15 K, m1 = 0.003455	0.0274
303.15 K, m1 = 0.003946	0.0311
303.15 K, m1 = 0.004412	0.0342
303.15 K, m1 = 0.004852	0.0375
303.15 K, m1 = 0.00528	0.0407
303.15 K, m1 = 0.005774	0.0442
303.15 K, m1 = 0.006137	0.0465
303.15 K, m1 = 0.006412	0.0486
303.15 K, m1 = 0.006786	0.0514
303.15 K, m1 = 0.00737	0.0557
303.15 K, m1 = 0.007781	0.0587
303.15 K, m1 = 0.008049	0.0605
303.15 K, m1 = 0.008511	0.0638
303.15 K, m1 = 0.008888	0.0663
303.15 K, m1 = 0.009262	0.0691
303.15 K, m1 = 0.009766	0.0727
303.15 K, m1 = 0.01022	0.0763
308.15 K, m1 = 0.00032	0.0028
308.15 K, m1 = 0.000664	0.006
308.15 K, m1 = 0.000979	0.0086
308.15 K, m1 = 0.001217	0.0105
308.15 K, m1 = 0.001449	0.0125
308.15 K, m1 = 0.001666	0.0142
308.15 K, m1 = 0.002016	0.017
308.15 K, m1 = 0.00224	0.0188
308.15 K, m1 = 0.002547	0.0213
308.15 K, m1 = 0.002821	0.0235
308.15 K, m1 = 0.003227	0.0266
308.15 K, m1 = 0.003473	0.0285
308.15 K, m1 = 0.003909	0.0318
308.15 K, m1 = 0.004306	0.0348
308.15 K, m1 = 0.004503	0.0365
308.15 K, m1 = 0.004751	0.0383
308.15 K, m1 = 0.005079	0.0408
308.15 K, m1 = 0.005473	0.0437
308.15 K, m1 = 0.005677	0.0452
308.15 K, m1 = 0.005898	0.0468
308.15 K, m1 = 0.006135	0.0484
308.15 K, m1 = 0.006462	0.0505
308.15 K, m1 = 0.006775	0.0522
308.15 K, m1 = 0.006992	0.0537
308.15 K, m1 = 0.007243	0.0556
308.15 K, m1 = 0.00746	0.0572
308.15 K, m1 = 0.007893	0.0603
308.15 K, m1 = 0.008273	0.063
308.15 K, m1 = 0.008535	0.0647
308.15 K, m1 = 0.008941	0.0676
308.15 K, m1 = 0.009261	0.0697
308.15 K, m1 = 0.009516	0.0711
308.15 K, m1 = 0.009886	0.0734
308.15 K, m1 = 0.01025	0.076
313.15 K, m1 = 0.00043	0.0042
313.15 K, m1 = 0.000832	0.008
313.15 K, m1 = 0.001262	0.012
313.15 K, m1 = 0.001627	0.0157
313.15 K, m1 = 0.002033	0.0192
313.15 K, m1 = 0.00239	0.0224
313.15 K, m1 = 0.002657	0.0247
313.15 K, m1 = 0.002904	0.0268
313.15 K, m1 = 0.003178	0.0292
313.15 K, m1 = 0.003443	0.0314
313.15 K, m1 = 0.003771	0.0349
313.15 K, m1 = 0.004146	0.038
313.15 K, m1 = 0.004519	0.0412
313.15 K, m1 = 0.004784	0.0433
313.15 K, m1 = 0.005179	0.0467
313.15 K, m1 = 0.005436	0.0487
313.15 K, m1 = 0.005698	0.051
313.15 K, m1 = 0.006109	0.0544
313.15 K, m1 = 0.006403	0.0567
313.15 K, m1 = 0.006614	0.0584
313.15 K, m1 = 0.006889	0.0606
313.15 K, m1 = 0.007247	0.0637
313.15 K, m1 = 0.007657	0.0669
313.15 K, m1 = 0.008021	0.0699
313.15 K, m1 = 0.008353	0.0725
313.15 K, m1 = 0.0086	0.0744
313.15 K, m1 = 0.008852	0.0763
313.15 K, m1 = 0.009114	0.0783
313.15 K, m1 = 0.009356	0.0803
313.15 K, m1 = 0.009621	0.0823
313.15 K, m1 = 0.009883	0.0842
313.15 K, m1 = 0.01024	0.0869
313.15 K, m1 = 0.01049	0.0888
